From a melting point compilation (Tetko et al.; mined from patent text by program, amines drawn as free bases though some values may be those of a salt)

Row | Structure (SMILES) | melting point
1 | O=C1CC(ON(Cc2ccccc2)Cc2ccccc2)C(=O)N1c1ccccc1 (configuration not stated) | 91 to 93 °C
2 | O=C1c2ccccc2C(=O)c2sc(-c3ccc(Br)o3)nc21 | > 260 °C
3 | CC(=O)Nc1ccc2oc(-c3ccc(OCc4ccccc4)c(OCc4ccccc4)c3)c(O)c(=O)c2c1 | 229 to 230 °C
4 | CCOC(=O)CCCCCNS(=O)(=O)c1ccc(Cl)cc1 | 102 to 105 °C
5 | CCOC(=O)C(Oc1cccc2c1ccn2C(=O)OCc1ccccc1)C(=O)OCC | 77 to 78 °C
6 | COP(=O)(Cc1ccc2ccccc2c1)OC | 80 to 81 °C
7 | COc1cc2c(cc1OC)CN(CC(=O)Nc1ccc(N)cc1)CC2 | 185 °C
8 | COC(=O)c1ccc(C(=S)Nc2ccccc2OC)cc1 | 105 to 107 °C
9 | O=C1CCC(c2ccccc2)(N2CCCCC2)CC1 | 116 to 117 °C
10 | Oc1ccc(C2CCC3(CC2)OCCO3)cc1 | 152 to 153 °C
11 | N#CN=C(Nc1cccnc1)NC(NC(=O)c1ccc(Cl)cc1)C(F)(F)F (configuration not stated) | 136 to 138 °C
12 | C[C@@H]1CC(C)(C)C[C@@]2(C1)[C@@H](C)CC(=O)[C@]2(C)O (relative stereo) | 73 to 74 °C
13 | CC(C)c1cccc(C(C)C)c1NC(=O)N(Cc1ccc(N(C)C)cc1)c1ccc(Br)cc1 | 165 to 166 °C
14 | Cc1c(C2=CCC(c3ccccc3)(N(C)C)CC2)[nH]c2ccccc12 (configuration not stated) | 168 to 180 °C
15 | COc1ccc(C(=O)Nc2ccccc2)cc1NS(=O)(=O)c1ccc(C#N)cc1 | 206 to 208 °C
16 | CC1(C)CC(=O)c2cc(SCc3ccccc3)[nH]c2C1 | 148 to 150 °C
17 | CCn1cc(C(=O)O)c(=O)c2cc(F)c(C3NCC4CCC3N4C)c(F)c21 (configuration not stated) | 184 to 187 °C
18 | COc1ccc(C(=O)Nc2ccc(C(C)(C)CNC(=O)c3nc4ccc(F)cc4[nH]3)cc2)cc1OC | 222 to 224 °C

Row | Structure (SMILES) | melting point
19 | CCNC(=O)Nc1cc(F)cc2c1OCCC21SC(=O)NC1=O (configuration not stated) | 197 to 199 °C
20 | Cc1nc2oc3c(c2c(=O)[nH]1)CCCC3 | > 300 °C
21 | CCN(CC)CCOc1ccn2nc(-c3ccccc3)c(-c3ccc(=O)n(C(C)C)n3)c2c1 | 92.5 to 94.5 °C
22 | COC(=O)c1c(C(=O)OC)c(-c2ccc(OC)cc2)c2c3c(ccc2c1OC)OCO3 | 166 to 167 °C
23 | CC(C)(C)OC(=O)N1CCN(CC(O)Cn2c3ccc(Br)cc3c3cc(Br)ccc32)CC1 (configuration not stated) | 90 to 95 °C
24 | CCOc1nc(NCc2ccncc2)nc(Nc2ccc3[nH]c(=O)[nH]c3c2)n1 | 210 to 212 °C
25 | CC(C)(C)OC(=O)CNC(=O)CC(c1ccccc1)c1ccccc1 | 77 to 81 °C
26 | COC(=O)N1CCC(=O)C(C2(NO)OCCO2)CC1 (configuration not stated) | 152 to 154 °C
27 | O=C(Nc1cccc2c1C(=O)N(CCN1CCN(c3ccncc3)CC1)C2=O)c1ccc(Cl)s1 | 168 °C
28 | O=C(O)COc1ccc(CCC(=O)c2ccc(-c3ccc(C(F)(F)F)cc3)s2)c(Cl)c1Cl | 217 to 219 °C
29 | NCC(O)COc1ccc(OCC(O)CN)cc1 (configuration not stated) | 128 to 132 °C
30 | CCCc1nc2ccc(C(=O)c3ccccc3)cc2n1Cc1ccc(C(=O)O)cc1 | 295 to 296 °C
31 | CCCc1c(OCCCCCCc2ccc(C(C)(C)C)c(OC)c2OC)ccc(C(=O)OCc2ccccc2)c1O | 106 to 108 °C
32 | CNC(=O)N(C)C(CCSC)P(=O)(O)O (configuration not stated) | 164 to 167 °C
33 | CC/C(=C(\c1ccc(/C=C/C(=O)O)cc1)c1ccc(OC(=O)c2cccs2)cc1)c1ccccc1 | 175 to 176 °C
34 | CCS1(N2CCN(c3ccccc3OC)CC2)C(C)=C(C)c2c1[nH]c(=O)[nH]c2=O (configuration not stated) | 196 to 197 °C
35 | CC(C)(C)c1ccc(C(=O)CCCN2CCC(O)CC2)cc1 | 63 to 65 °C
36 | C/C(NCC(C)(C)C)=C(\C#N)C(N)=S | 143 to 144 °C

The remaining lines, values ahead:

Row | melting point | Structure (SMILES)
37 | 216 to 219 °C | CC(C)(C)OC(=O)Nc1ccn2nc(N3CCCC3)nc2c1
38 | 63 to 64 °C | CCOC(=O)c1cc2c(F)ccc(Cl)c2s1
39 | 198 to 200 °C | COc1ccc(-c2cc(=Nc3c(C)cc(C)cc3C)n(C)c3nnnn23)cc1OC
40 | 268 to 270 °C | CCC(=O)Nc1ccc(C2=NNC(=O)C3CC23)cc1 (configuration not stated)
41 | 222 °C | Cc1nc(N)nc(N)c1-c1ccc(Cl)cc1Cl
42 | 95 to 96 °C | COc1cccc(C(=O)Nc2cc(C(=O)NCc3ccccc3)ccn2)c1
43 | 156 to 157 °C | CCC(OC)(c1cccc(OCc2ccc3c(-c4ccoc4)cc(C#N)cc3c2)c1)c1nccs1 (configuration not stated)
44 | 135 to 137 °C | CCOC(=O)c1cc(OC(C)=O)c2cc(N3CCOCC3)ccc2c1
45 | 235 to 236 °C | Cn1c(C(F)(F)F)cc(=O)n(-c2ccc(Cl)c(C(=O)O)c2)c1=O
46 | 225 to 226 °C | COc1cc(N)c(Cl)cc1C(=O)NN1CCN(Cc2cccs2)CC1
47 | 157 to 158 °C | Oc1cc(O)cc(-c2ccccc2)c1
48 | 94 to 96 °C | Oc1cccc(C(O)(c2nccs2)C(F)(F)F)c1 (configuration not stated)
49 | 191 to 193 °C | COc1cc2c(c3c1OC(C)(C)C3)C(c1cccc(C(N)=O)c1)=NCC2(C)C
50 | 159 to 161 °C | Cn1nnc(Cc2ccc(NC(=O)/C=C/c3cnn(C)c3-c3ccc(F)cc3)cc2)n1
51 | 182 to 184 °C | Cc1cc(/C=C/C(=O)O)c(C)n1-c1ccc(C(=O)N(C)C)cc1
52 | 107 to 110 °C | CCOC(=O)C(=O)c1cc(Cl)cc2cccnc12
53 | 95 to 96 °C | CC1=CC(=Nc2nccs2)C(C)C(C)=C1O (configuration not stated)
54 | 131 to 132 °C | COc1ccnc(CCC(=O)O)c1

Row | melting point | Structure (SMILES)
55 | 161 to 162 °C | S=C=Nc1ccc(-c2nc(-c3cccs3)no2)cc1
56 | 171 to 172 °C | COC(=O)c1ccc(Cn2ncc3ccc([N+](=O)[O-])cc32)cc1
57 | 248 to 250 °C | COc1cc2nc(N)nc(-c3ccc(Cl)cc3)c2cc1OC
58 | 241 to 242 °C | CCCOc1cc(S(C)(=O)=O)ccc1-c1ccc(C#N)c(=O)[nH]1
59 | 82.5 to 83.5 °C | Cc1ccc(S(=O)(=O)N(C)c2ccc(Br)cc2[N+](=O)[O-])cc1
60 | 134 to 138 °C | C[C@@H](CO)COc1ccc(-c2ccc(Cl)nn2)cc1
61 | 42 to 44 °C | CC[C@@H](Nc1nc(NCc2ccccc2)c2ncn(C(C)C)c2n1)[C@H](C)O
62 | 251 to 253 °C | CNC(=O)Cc1c(-c2ccccc2)nc2n(C)c3ccc(C)cc3n12
63 | 80 to 83 °C | CCOc1c(C)c(N2CCN(c3ccc(OC)c(C)c3)CC2)c(C)c2c1OC(C)C2 (configuration not stated)
64 | 135 to 136 °C | CCn1ncc2c(NCC3CCC(C(=O)OCSC)CC3)c3ccccc3nc21 (configuration not stated)
65 | 113 to 114 °C | N#CCOc1ccc(O)c([N+](=O)[O-])c1
66 | 232 to 234 °C | CCOc1cc2c(cc1OCC)[C@@H]1CCCC[C@@H]1N=C2c1ccc(O)cc1 (racemic)
67 | 219 to 221 °C | Cc1nc2c(N[C@@H]3c4ccccc4C[C@H]3O)cc(C(=O)N(C)C)cc2n1C (relative stereo)
68 | 100 to 102 °C | CCCC(=O)c1cnc2c(OCCCN(C)Cc3ccccc3)cccc2c1Nc1ccccc1C
69 | 68 °C | CC(C)(C)OC(=O)C1CCCC(c2ccccc2)N1 (configuration not stated)
70 | 56 to 62 °C | CCOC(=O)C=C1c2ccccc2CC(=O)c2ccccc21
71 | 83 to 85 °C | CCOC(=O)CCCOc1ccc(C=Cc2ccncc2)cc1
72 | 256 to 259 °C | Cc1cccc(Nc2c([N+](=O)[O-])cc(C(=O)O)cc2S(N)(=O)=O)c1
